The subject of the data set is human cardiomyocytes.

Molecules are shown by their SMILES.

Regarding `COc1cccc2c1C(=O)c1c(O)c3c(c(O)c1C2=O)C[C@@](O)(C(=O)CO)C[C@@H]3O[C@H]1C[C@H](N)[C@H](O)[C@H](C)O1` [free doxorubicin, (8S,10S)-10-(4-amino-5 hydroxy-6-methyl-tetrahydro-2H-pyran-2-yloxy)-6,8,11-trihydroxy-8-(2-hydroxyacetyl)-1-methoxy-7,8,9,10-tetrahydrotetracene-5,12-dione], the “level of uptake into human cardiomyocytes” value was “relatively much higher compared to both MM-302 and untargeted pegylated liposomal doxorubicin”.

The values above are taken from patent publication US9913901B2, “Combination therapy for treating HER2-positive cancers” (Merrimack Pharmaceuticals, Inc., priority 2012, dated 2018).
